Series [1] concerns Plasmodium falciparum. Briefly: Antimicrobial activity against Plasmodium falciparum NF54. Format: functional.
In another series the test system is Aspergillus fumigatus. Briefly: Antimicrobial activity against Aspergillus fumigatus by NCCLS method. Format: functional, organism-based.
In series [2] the test system is Staphylococcus aureus. Briefly: Antimicrobial activity against methicillin-resistant Staphylococcus aureus by NCCLS method. The series is classed as functional, organism-based.
For a further series, the system named is Leishmania donovani. Put plainly: Antileishmanial activity against Leishmania donovani promastigotes after 48 hrs by Alamar Blue assay. Format: functional, organism-based. To be noted: Leishmania donovani, 48 h; for IC50: read-out: IC50. In general terms: Resazurin is reduced to fluorescent resorufin, in cell work by metabolically active cells.
Series [3] relates to Plasmodium falciparum. Put plainly: Antimicrobial activity against Plasmodium falciparum W2 after 72 hrs by LDH activity assay. To be noted: Plasmodium falciparum, W2, 72 h; read-out: IC50. The series is classed as functional, organism-based.
In a further series the test system is Vero. Put plainly: Cytotoxicity against african green monkey Vero cells after 48 hrs by Neutral Red assay. Format: cell-based. To be noted: Chlorocebus sabaeus.
Series [4] can be described thus: Selectivity index, ratio of IC50 for human HepG2 cells to IC50 for Plasmodium falciparum D6. Format: toxicity, cell-based. The conditions noted are these: read-out: Ratio IC50.
The nature of series [5]: Selectivity index, ratio of IC50 for pig LLC-PK1 cells to IC50 for Plasmodium falciparum W2. To be noted: read-out: Ratio IC50. Format: toxicity, cell-based.
Series [6] is described as follows: Selectivity index, ratio of IC50 for human HepG2 cells to IC50 for Plasmodium falciparum W2. The series is classed as toxicity, cell-based. The conditions noted are these: read-out: Ratio IC50.
The subject of the next series is Candida albicans. Put plainly: Antimicrobial activity against Candida albicans by NCCLS method. The series is classed as functional, organism-based.
A further series concerns HepG2. Put plainly: Cytotoxicity against human HepG2 cells after 48 hrs by Neutral Red assay. The series is classed as cell-based. The conditions noted are these: HepG2, 48 h.
The test system of the next series is Cryptococcus neoformans. Briefly: Antimicrobial activity against Cryptococcus neoformans by NCCLS method. Format: functional, organism-based.
Series [7] concerns Staphylococcus aureus. Put plainly: Antimicrobial activity against Staphylococcus aureus by NCCLS method. Format: functional, organism-based.
The nature of series [8]: Selectivity index, ratio of IC50 for african green monkey Vero cells to IC50 for Plasmodium falciparum W2. Format: toxicity, cell-based. To be noted: read-out: Ratio IC50.
Series [9] can be described thus: Selectivity index, ratio of IC50 for african green monkey Vero cells to IC50 for Plasmodium falciparum D6. To be noted: read-out: Ratio IC50. The series is classed as toxicity, cell-based.
Series [10] is described as follows: Selectivity index, ratio of IC50 for pig LLC-PK1 cells to IC50 for Plasmodium falciparum D6. Format: toxicity, cell-based. To be noted: read-out: Ratio IC50.
Series [11] has as its system Plasmodium falciparum. Briefly: Antimicrobial activity against Plasmodium falciparum D6 after 72 hrs by LDH activity assay. The series is classed as functional, organism-based. To be noted: Plasmodium falciparum, D6, 72 h; read-out: IC50.
Another series has as its system LLC-PK1. Briefly: Cytotoxicity against a pig LLC-PK1 cells after 48 hrs by Neutral Red assay. To be noted: Sus scrofa, LLC-PK1, 48 h. The series is classed as cell-based.

In brackets after ≈: the same amount, converted by molar mass. Activity calls are given as the source filed them.

The source of these data is ChEMBL document CHEMBL3132801, “Meridianin G and its analogs as antimalarial agents” (Medchemcomm, 2013).

The MIC is the least concentration at which growth counts as inhibited. Usually IC50 stands for the concentration needed to halve the response being measured. In general, MBC refers to the smallest concentration meeting the test's criterion for killing. What is called IC90 is the concentration needed for an effect of 90%.

The compound `CN1CCN(c2ncc(-c3ccccc3)c(-c3c[nH]c4ccccc34)n2)CC1` yielded an MIC in the series on Plasmodium falciparum [1] of 3 µM (≈ 1.11 µg/mL).

`Nc1nccc(-c2cn(C(=O)c3ccccc3)c3ccc(Br)cc23)n1`: the result in the series with Aspergillus fumigatus and with Candida albicans was inactive. The half-inhibitory concentration (IC50) entry is “Not Active” in the series on Staphylococcus aureus [2]; 105 µM in the series with Leishmania donovani; 3.98 µM in the series on Plasmodium falciparum [3]; more than 64 µM in the series on Vero; more than 64 µM in the series with HepG2; 24.3 µM with Cryptococcus neoformans. Moreover, the concentration for half-maximal inhibition (IC50) result is “Not Active” with Staphylococcus aureus [7], 7.45 µM in the series on Plasmodium falciparum [11] and more than 64 µM in the series with LLC-PK1. In addition, the MBC result with Staphylococcus aureus [2], in the series on Cryptococcus neoformans and in the series with Staphylococcus aureus [7] was “inactive” throughout. The MIC result in the series with Staphylococcus aureus [2], with Cryptococcus neoformans and in the series with Staphylococcus aureus [7] was “inactive” in each case. Also, the selectivity ratio in [4] was more than 8.5; in series [5], more than 16; in series [6], more than 16; in series [8], more than 16; in series [9], more than 8.5; in series [10], more than 8.5.

Take `Nc1nccc(-c2cn(Cc3ccc(Cl)s3)c3ccc(Br)cc23)n1`: the result with Aspergillus fumigatus and with Candida albicans was inactive. The half-maximal inhibitory concentration (IC50) result with Staphylococcus aureus [2] is “Not Active”; with Leishmania donovani it was 29.1 µM; with Plasmodium falciparum [3], 10.1 µM; with Vero, more than 60 µM; with HepG2, more than 60 µM; in the series on Cryptococcus neoformans, 19.9 µM. In addition, the IC50 is 40.5 µM in the series with Staphylococcus aureus [7] (Staphylococcus aureus, read-out: IC50); 13.6 µM with Plasmodium falciparum [11]; more than 60 µM in the series on LLC-PK1. Besides, the MBC result with Staphylococcus aureus [2] and in the series on Staphylococcus aureus [7] was “inactive” each time. Moreover, the MIC entry in the series on Staphylococcus aureus [2] and with Staphylococcus aureus [7] was “inactive” each time. Besides, the 90% effect level in the series with Leishmania donovani (IC90) was put at 41.2 µM. Moreover, the selectivity ratio in [4] was more than 4.4; in series [5], more than 5.9; in series [6], more than 5.9; in series [8] it was more than 5.9; in series [9], more than 4.4; in [10], more than 4.4. This compound also came in with a minimal bactericidal concentration (MBC) in the series with Cryptococcus neoformans of 47.7 µM (≈ 20 µg/mL). Also, in the series with Cryptococcus neoformans, 47.7 µM (≈ 20 µg/mL) was the least that counted as inhibitory (MIC).
